Test results from ChEMBL document CHEMBL5046231, “Modulation of Naturally Occurring Linear Dipeptide Chirality to Reduce the Affinity for Oligopeptide Transporter 1 and Increase Intestinal Stability for an Enhanced Colon-Targeting Effect in the Treatment of Inflammatory Bowel Disease: An Application of trans-4-l-Hydroxyprolyl-l-serine” (J Med Chem, 2022).
The source made the active and inactive calls. No cut-off for these calls is given here.

Key:
[1] = system: Mus musculus; test: Antiinflammatory activity in DSS-induced C57BL/6 mouse model of colitis assessed as decrease in IL-1beta level 25 to 100 mg/kg, po administered via gavage twice a day for 10 days; assay type: functional, organism-based; settings: dose 25-100 mg/kg, time 10.0 day
[2] = system: Mus musculus; test: Anti-colitis activity against DSS-induced C57BL/6 mouse model of colitis assessed as assessed as body weight recovery at 50 mg/kg, po administered via gavage DSS stimulation for 5 days followed by compound addition once daily for 10 days; assay type: functional, organism-based; settings: time 10.0 day
[3] = system: Mus musculus; test: Anti-colitis activity against DSS-induced colitis in C57BL/6 mouse model assessed as decrease in MPO level in colon at 50 mg/kg, po administered via gavage twice a day for 10 days; assay type: functional; design: scale not given: the % may be the effect or the level left; settings: time 10 day
[4] = system: Mus musculus; test: Anti-colitis activity against DSS-induced colitis in C57BL/6 mouse model assessed as assessed as recovery of body weight at 25 mg/kg, po administered via gavage twice daily for 10 days; assay type: functional, organism-based; settings: time 10.0 day
[5] = system: Mus musculus; test: Antiinflammatory activity in DSS-induced C57BL/6 mouse model of colitis assessed as increase in IL-10 level 25 to 100 mg/kg, po administered via gavage twice a day for 10 days; assay type: functional, organism-based; settings: dose 25-100 mg/kg, time 10.0 day
[6] = system: Mus musculus; test: Anti-colitis activity against DSS-induced colitis in C57BL/6 mouse model assessed as body weight recovery at 50 mg/kg, po administered via gavage twice a day for 10 days; assay type: functional, organism-based; settings: time 10.0 day
[7] = system: Mus musculus; test: Anti-colitis activity against DSS-induced colitis in C57BL/6 mouse model assessed as increase in colon length at 25 mg/kg, po administered via gavage twice daily for 10 days; assay type: functional, organism-based; settings: time 10.0 day
[8] = system: Mus musculus; test: Antiinflammatory activity in DSS-induced C57BL/6 mouse model of colitis assessed as decrease in TNF-alpha level 25 to 100 mg/kg, po administered via gavage twice a day for 10 days; assay type: functional, organism-based; settings: dose 25-100 mg/kg, time 10.0 day
[9] = system: Mus musculus; test: Anti-colitis activity against DSS-induced C57BL/6 mouse model of colitis assessed as fold change in body weight recovery at 25 to 100 mg/kg, po administered via gavage twice a day for 10 days relative to SASP; assay type: functional; settings: dose 25-100 mg/kg; time 10 day
[10] = system: Mus musculus; test: Anti-colitis activity against DSS-induced colitis in C57BL/6 mouse model assessed as increase in colon length at 50 mg/kg, po administered via gavage twice a day for 10 days; assay type: functional, organism-based; settings: time 10.0 day
[11] = system: Mus musculus; test: Anti-colitis activity against DSS-induced colitis in C57BL/6 mouse model assessed as reduction colonic damage at 50 mg/kg, po administered via gavage twice a day for 10 days; assay type: functional, organism-based; settings: time 10.0 day
[12] = system: Mus musculus; test: Anti-colitis activity against DSS-induced C57BL/6 mouse model of colitis assessed as fold change in disease activity index at 25 to 100 mg/kg, po administered via gavage twice a day for 10 days relative to SASP; assay type: functional; settings: dose 25-100 mg/kg; time 10 day
[13] = system: Mus musculus; test: Anti-colitis activity against DSS-induced C57BL/6 mouse model of colitis assessed as increase in colon length at 50 mg/kg, po administered via gavage DSS stimulation for 5 days followed by compound addition once daily for 10 days; assay type: functional, organism-based; settings: time 10.0 day
[14] = system: Mus musculus; test: Anti-colitis activity against DSS-induced C57BL/6 mouse model of colitis assessed as fold change in colon length at 25 to 100 mg/kg, po administered via gavage twice a day for 10 days relative to SASP; assay type: functional; settings: dose 25-100 mg/kg; time 10 day
[15] = system: Mus musculus; test: Antiinflammatory activity in DSS-induced C57BL/6 mouse model of colitis assessed as decrease in […] level 25 to 100 mg/kg, po administered via gavage twice a day for 10 days; assay type: functional, organism-based; settings: dose 25-100 mg/kg, time 10.0 day
[16] = system: Mus musculus; test: Anti-colitis activity against DSS-induced colitis in C57BL/6 mouse model assessed as fold decrease in disease activity index at 50 mg/kg, po administered via gavage twice daily for 10 days relative to control; assay type: functional; settings: time 10 day

Structure (SMILES): O=C(O)c1cc(/N=N/c2ccc(S(=O)(=O)Nc3ccccn3)cc2)ccc1O [SULFASALAZINE]
- Activity [1]: Active
- Activity [2]: Active
- Activity [3]: 27.3%
- Activity [4]: Active
- Activity [5]: Active
- Activity [6]: Active
- Activity [7]: Active
- Activity [8]: Active
- fold change (FC) [9]: 2.1
- Activity [10]: Active
- Activity [11]: Active
- fold change (FC) [12]: 2.3
- Activity [13]: Active
- fold change (FC) [14]: 1.2
- Activity [15]: Active
- fold change (FC) [16]: 1.5
